In patent publication US20050288273A1, “Antibacterial agents” (priority 2003, published 2005):
≈ marks a conversion by molar mass, not a printed value.

How the values were obtained:
[1] = system: E. faeciaum EF4-3836; experiment: Cross resistance antibacterial assay (MIC), strain 5; conditions: read-out: Minimum Inhibitory Concentrations in Strain 5
Procedure: (§2) The compounds of the present invention were tested against an assortment of drug resistant organisms described below using standard microtitration techniques (Cohen, et. al., Antimicrob. Agents Chemother., 1985; 28:766; Heifetz, et. al., Antimicrob. Agents Chemother, 1974; 6:124). […] E. faeciaum EF4-3525: Vancomicin resitant strain. • 5. E. faeciaum EF4-3836: Multiple drug resitant strain (lineozolid, AZD2563-R, vancomicin, ampicillin, macrolide-R, quinolone-R, trimeothprim/sulfamethoxazole). • 6.

[2] = system: S. aureus SA-2017; experiment: Cross resistance antibacterial assay (MIC), strain 6; type: cell-based; conditions: Staphylococcus aureus, SA2017; S. aureus SA-2017, multiple drug resistant (methicillin, ciprofloxacin); read-out: Minimum Inhibitory Concentrations in Strain 6
Source text: (§1) Test C—Cross Resistance Antibacterial Assay

[3] = system: S. pneumoniae SP-3561; experiment: Cross resistance antibacterial assay (MIC), strain 11; type: cell-based; conditions: Streptococcus pneumoniae, SP3561; S. pneumoniae SP-3561, multiple drug resistant (penicillin, macrolide-R, tetracycline etc.); read-out: Minimum Inhibitory Concentrations in Strain 11
Source text: as §1

[4] = system: S. pneumoniae SP-3536; experiment: Cross resistance antibacterial assay (MIC), strain 10; type: cell-based; conditions: Streptococcus pneumoniae, SP3536; S. pneumoniae SP-3536, multiple drug resistant (B-lactamase and macrolide-R); read-out: Minimum Inhibitory Concentrations in Strain 10
Source text: as §1

[5] = system: E. faeciaum EF4-3525; experiment: Cross resistance antibacterial assay (MIC), strain 4; conditions: read-out: Minimum Inhibitory Concentrations in Strain 4
Procedure: as §2

[6] = system: H. influenziae Hi-3113; experiment: Cross resistance antibacterial assay (MIC), strain 13; type: cell-based; conditions: H. influenziae Hi-3113, B-lactamase; read-out: Minimum Inhibitory Concentrations in Strain 13
Source text: as §1
13. H. influenziae Hi-3113: B-lactamase

[7] = system: S. aureus SA-3839; experiment: Cross resistance antibacterial assay (MIC), strain 8; type: cell-based; conditions: Staphylococcus aureus, SA3839; S. aureus SA-3839, multiple drug resistant (linezolid and methicillin); read-out: Minimum Inhibitory Concentrations in Strain 8
Source text: as §1

[8] = system: S. pyogenes SP1-3541; experiment: Cross resistance antibacterial assay (MIC), strain 12; type: cell-based; conditions: Streptococcus pyogenes, SP13541; S. pyogenes SP1-3541, multiple drug resistant (MLS); read-out: Minimum Inhibitory Concentrations in Strain 12
Source text: as §1

[9] = system: E. faecalis EF-13524; experiment: Cross resistance antibacterial assay (MIC), strain 2; type: cell-based; conditions: Enterococcus faecalis, EF13524; E. faecalis EF-13524, vancomicin resistant strain; read-out: Minimum Inhibitory Concentrations in Strain 2
Source text: as §1

[10] = system: E. faecalis EF-3838; experiment: Cross resistance antibacterial assay (MIC), strain 3; type: cell-based; conditions: Enterococcus faecalis, EF3838; E. faecalis EF-3838, multiple drug resistant (vancomicin, erythromycin, gentamicin); read-out: Minimum Inhibitory Concentrations in Strain 3
Source text: as §1

[11] = system: S. aureus SA-3840; experiment: Cross resistance antibacterial assay (MIC), strain 9; type: cell-based; conditions: Staphylococcus aureus, SA3840; S. aureus SA-3840, multiple drug resistant (linezolid and methicillin); read-out: Minimum Inhibitory Concentrations in Strain 9
Source text: as §1

[12] = system: S. aureus SA-3528; experiment: Cross resistance antibacterial assay (MIC), strain 7; type: cell-based; conditions: Staphylococcus aureus, SA3528; S. aureus SA-3528, multiple drug resistant (MLS); read-out: Minimum Inhibitory Concentrations in Strain 7
Source text: as §1

In the case of `CC(=O)NC[C@H]1CN(c2ccc3c(c2)CCCc2cnoc2-3)C(=O)O1` [Example 3A, (S)-N-[3-(5,6-dihydro-4H-1-oxa-2-aza-benzo[e]azulen-8-yl)-2-oxo-oxalidin-5-ylmethyl]acetamide], the MIC [1] is reported as 1 µg/mL (≈ 2.93 µM), the MIC [2] is reported as 0.5 µg/mL (≈ 1.46 µM) and the MIC [3] is reported as 0.25 µg/mL (≈ 0.732 µM). For the same compound, the MIC [4] was 4 µg/mL (≈ 11.7 µM), the MIC [5] was 0.5 µg/mL (≈ 1.46 µM) and the MIC [6] was 2 µg/mL (≈ 5.86 µM). It also gave an MIC [7] of 4 µg/mL (≈ 11.7 µM), an MIC [8] of 0.5 µg/mL (≈ 1.46 µM) and an MIC [9] of 0.25 µg/mL (≈ 0.732 µM). The MIC [10] was 1 µg/mL (≈ 2.93 µM), the MIC [11] was 4 µg/mL (≈ 11.7 µM) and the MIC [12] was 48 µg/mL (≈ 141 µM).
